# Source: patent US20230046018A1, “BIARYL COMPOUND AS PAN-RAF KINASE INHIBITOR” (MEDSHINE DISCOVERY INC., priority 2019, published 2023)
# Read-outs that look alike come from different tables or passages of the source.
# Tests used:
# [1] = tested on: ERK phosphorylation in Ca1u-6(Kras^Q61K); test: Ca1u-6 (Kras^Q61K) ERK phosphorylation inhibition (HTRF); type: cell-based, human; details: 1 hour with compound, read-out: Calu-6 ERK phosphorylation inhibitory activity IC50
# Protocol: Experiments for Ca1u-6(Kras^Q61K) ERK Phosphorylation Inhibition
# (§1) 1) cells were resuscitated, cultured to a logarithmic growth phase, then digested with trypsin and seeded in a 96-well plate, and the plate was incubated overnight in an incubator;
# (§2) 2) serial gradients of compounds dissolved in DMSO were added to the 96-well plate, which was then put back into the incubator for 1 hour;
# 3) the cell plate was taken out; and the cells were incubated and lysed by adding cell lysates (containing 1% blocking peptide) for 30 minutes at room temperature;
# (§3) 4) 16 μL of cell lysates per well was transferred to the HTRF plate, and then 4 μL of the mixed antibody solution formulated thereby was added;
# (§4) 5) after overnight incubation, the plate was read on Envision; the fitted curves were obtained according to ratio (the ratio of Ex665/Ex615 fluorescence intensity); and EC50 was calculated with the four-parameter fitting formula, i.e., Y=Bottom+(Top−Bottom)/(1+10^((LogEC50−X)*Hill Slope)) on Graphpad.
# cRAF protein = biological target: T1, cRAF protein (Homo sapiens, UniProt P04049); test: c-RAF enzyme inhibitory activity (ADP-Glo, MEK1 substrate); type: biochemical; details: MEK1 and ATP substrate
# T1 construct: purchased Creative BioMart RAF1-416H
# Protocol: Experiments for c-RAF Enzyme Inhibitory Activity
# the compounds to be tested and reference compounds were diluted to 100 μM with DMSO, and the compounds were further subjected to a 3-fold gradient dilution using Echo to obtain target plates with 11 concentration gradients.
# 1) buffer formulation: 50 mM Tris-HCl (pH 7.4), 3.5 mM MgCl2, 150 mM NaCl, 1 mM DTT, 0.02% Triton X-100, H2O;
# 7) after 1 hour, the plate was read on Envision.
# HCT-116(Kras^G13D) = test: HCT-116 (Kras^G13D) antiproliferative activity (CellTiter Glo); type: cell-based; details: HCT-116 (Kras^G13D) cells, three days
# Protocol: Experiments for HCT-116(Kras^G13D) Antiproliferative Activity
# (1) cell medium: 89% Mc'Coy 5A, 10% fetal bovine serum and 1% penicillin-streptomycin;
# (2) the original medium in the cell culture flask was removed; the cells were digested with trypsin and then counted; and the cell suspension was diluted with the medium to a cell density of 2.5×10^4 cells per milliliter required for plating;
# (§5) (3) 100 μL of the medium was added to the outermost circle of wells of the cell plate; 80 μL of the cell suspension was added to other wells; and the plate was cultured overnight in a 37° C. incubator with 5% CO2.
# the compounds were subjected to a gradient dilution and then supplemented; and the cell plate was put back into the incubator for three days.
# (§6) adding CTG and reading the plate involve adding 20 μL of CellTiterGlo to each well of the cell plate, shaking the plate for 10 min in the dark, and reading the plate on Victor Nivo.
# [2] = tested on: ERK phosphorylation in HCT116(Kras^G13D); test: HCT116 (Kras^G13D) ERK phosphorylation inhibition (HTRF); type: cell-based, human; details: 1 hour with compound, read-out: HCT-116 ERK phosphorylation inhibitory activity IC50
# Protocol: Experiments for HCT116(Kras^G13D) ERK Phosphorylation Inhibition
# as §1, §2
# 3) the cell plate was taken out; the supernatant was removed; and the cells were incubated and lysed by adding cell lysates (containing 1% blocking peptide) for 30 minutes at room temperature;
# as §3, §4
# Ca1u-6 (Kras^Q61K) = Ca1u-6 (Kras^Q61K) antiproliferative activity (CellTiter Glo); type: cell-based, human; details: Ca1u-6 (Kras^Q61K) cells, three days, read-out: Calu-6 anti-proliferative activity IC50
# Protocol: Experiments for Ca1u-6 (Kras^Q61K) Antiproliferative Activity
# (1) cell medium: 89% EMEM, 10% fetal bovine serum and 1% penicillin-streptomycin;
# (2) the original medium in the cell culture flask was removed; the cells were digested with trypsin and then counted; and the cell suspension was diluted with the medium to a cell density of 3.75×10^4 cells per milliliter required for plating;
# as §5
# the compounds were subjected to a gradient dilution and then supplemented using Echo; and the cell plate was put back into the incubator for three days.
# as §6
# [3] = In vivo pharmacokinetics in mice; details: mouse, plasma, female CD-1 mice; for AUC: read-out: Curve area AUC
# Text: Experiments for In Vivo Pharmacokinetics in Mice
# 2) Experimental animals: 4 female CD-1 mice, which were divided into 2 groups, 2 mice in each group;
# 3) Drug formulation: An appropriate amount of the drug was weighed and dissolved in an aqueous solution of solutol (5% by volume), DMSO (5% by volume) and PEG-300 (25% by volume) for injection administration. An appropriate amount of the drug was weighed and dispersed in a 5% solutol aqueous solution (80% by volume), and then PEG-400 (20% by volume) was added; the mixture was mixed well and used for intragastric administration. Solutol is polyethylene glycol-15-hydroxystearate.
# The animals in the first group were administered the compound at a dose of 2 mg/kg at a concentration of 1 mg/mL by intravenous administration. Plasma samples were collected from the animals at 0.117, 0.333, 1, 2, 4, 7 and 24 hours after administration. The animals in the second group were administered the compound at a dose of 100 mg/kg at a concentration of 10 mg/mL by intragastric administration. Plasma samples were collected from the animals at 0.0833, 0.25, 0.5, 1, 2, 4, 6, 8 and 24 hours after administration. The drug concentration at each point was determined by the LC-MS/MS method, and kinetic parameters of the tested drug were as follows: […]
# [4] = tested on: human lung cancer Ca1u-6 subcutaneous xenograft tumor; test: In vivo pharmacodynamics, human lung cancer Ca1u-6 subcutaneous xenograft tumor BALB/c nude mouse model; details: 100 mg/kg PO QD × 21 days, Ca1u-6 xenograft, BALB/c nude mice
# Protocol: When the cell saturation was 80% to 90%, and the number reached the requirement, the cells were collected, counted and inoculated.
# Tumor diameter was measured twice a week with a vernier caliper.
# TGI (%) reflected the tumor growth inhibition rate.
# [5] = Homo sapiens, Calu-6, 1 h, Ca1u-6 (Kras^Q61K) cells
# [6] = Homo sapiens, HCT-116, 1 h, HCT116 (Kras^G13D) cells
# [7] = Homo sapiens, HCT-116, HCT116 (Kras^G13D) cells
# T1 sequence (P04049 whole entry): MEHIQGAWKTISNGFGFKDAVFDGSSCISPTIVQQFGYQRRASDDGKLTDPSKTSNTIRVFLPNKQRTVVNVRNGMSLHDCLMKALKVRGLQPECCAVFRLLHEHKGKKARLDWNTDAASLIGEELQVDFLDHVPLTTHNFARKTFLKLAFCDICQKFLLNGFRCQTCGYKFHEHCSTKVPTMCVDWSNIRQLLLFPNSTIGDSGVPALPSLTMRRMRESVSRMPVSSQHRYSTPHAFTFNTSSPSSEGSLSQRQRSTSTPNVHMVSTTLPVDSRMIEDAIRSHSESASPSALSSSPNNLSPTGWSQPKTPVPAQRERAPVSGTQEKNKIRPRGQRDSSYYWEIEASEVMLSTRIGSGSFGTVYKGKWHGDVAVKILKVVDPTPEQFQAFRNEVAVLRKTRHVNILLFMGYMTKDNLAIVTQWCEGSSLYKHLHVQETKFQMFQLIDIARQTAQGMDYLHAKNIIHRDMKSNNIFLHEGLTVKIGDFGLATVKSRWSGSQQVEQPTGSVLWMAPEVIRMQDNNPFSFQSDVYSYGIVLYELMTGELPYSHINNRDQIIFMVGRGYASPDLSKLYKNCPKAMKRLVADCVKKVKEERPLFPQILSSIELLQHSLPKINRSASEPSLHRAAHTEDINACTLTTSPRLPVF
"IC50 [1, 5] [nM]",IC50 (cRAF protein) [nM],"IC50 (HCT-116(Kras^G13D); Homo sapiens, 72 h) [nM]",SMILES,"IC50 (Ca1u-6 (Kras^Q61K); Homo sapiens, Calu-6, 72 h) [nM]",also measured
220,2.5,600,"Cc1ccc(NC(=O)c2ccnc(C(F)(F)F)c2)cc1-c1cc(OCCO)nc(C23CCOCC2C3)c1 (single isomer, unassigned) [Compound 1A]",1200,"IC50 [2, 6]: 140 nM"
–,2,–,"Cc1ccc(NC(=O)c2ccnc(C(F)(F)F)c2)cc1-c1cc(OCCO)nc(C23CCOCC2C3)c1 (single isomer, unassigned) [Compound 1B]",–,IC50 ([1]; Ca1u-6 (Kras^Q61K) cells): 250 nM; IC50 (HCT-116(Kras^G13D)): 600 nM; IC50 ([2]; HCT116 (Kras^G13D) cells): 220 nM; IC50 (Ca1u-6 (Kras^Q61K)): 960 nM
–,2.7,2300,Cc1ccc(NC(=O)c2ccnc(C(F)(F)F)c2)cc1-c1cc(N(C)CCO)nc(C23CCOCC2C3)c1 (stereo not drawn) [Compound 2],1100,"IC50 [2, 6]: 210 nM"
170,1,2600,Cc1ccc(NC(=O)c2ccnc(C(F)F)c2)cc1-c1cc(OCCO)nc(C23CCOCC2C3)c1 (stereo not drawn) [Compound 5],4600,–
–,2.5,5300,COC[C@@H](O)COc1cc(-c2cc(NC(=O)c3ccnc(C(F)(F)F)c3)ccc2C)cc(C23CCOCC2C3)n1 (stereo partly drawn) [Compound 10],7100,–
430,2.8,800,Cc1ccc(NC(=O)c2ccnc(C(F)(F)F)c2)cc1-c1cc(OCCO)nc(C23CCOCC2C3(F)F)c1 (stereo not drawn) [Compound 11],1100,–
390,–,200,Cc1ccc(NC(=O)c2ccnc(C(F)(F)F)c2)cc1-c1cc(N2CC(O)C2)nc(C23CCOCC2C3)c1 (stereo not drawn) [Compound 13],200,–

# Continued, compound first:
SMILES,"IC50 [1, 5] [nM]",IC50 (cRAF protein) [nM],"IC50 (HCT-116(Kras^G13D); Homo sapiens, 72 h) [nM]","IC50 (Ca1u-6 (Kras^Q61K); Homo sapiens, Calu-6, 72 h) [nM]",also measured
Cc1ccc(NC(=O)c2ccnc(C(F)(F)F)c2)cc1-c1cc(NCCO)nc(C23CCOCC2C3)c1 (stereo not drawn) [Compound 3],–,1.7,2300,1400,"IC50 [2, 6]: 190 nM"
Cc1ccc(NC(=O)c2ccnc(C(C)(F)F)c2)cc1-c1cc(OCCO)nc(C23CCOCC2C3)c1 (stereo not drawn) [Compound 6],220,0.9,600,1000,–
Cc1ccc(NC(=O)c2ccnc(C(F)(F)F)c2)cc1-c1cc(SCCO)nc(C23CCOCC2C3)c1 (stereo not drawn) [Compound 7],–,2.5,–,–,–
Cc1ccc(NC(=O)c2ccnc(C(F)(F)F)c2)cc1-c1cc(C23CCOCC2C3)cc(OCCO)n1 (stereo not drawn) [Compound 8],350,1.1,1100,1000,–
Cc1ccc(NC(=O)c2ccnc(C(F)(F)F)c2)cc1-c1cc(OC[C@H](O)CO)nc(C23CCOCC2C3)c1 (stereo partly drawn) [Compound 9],180,1.2,800,6400,–
Cc1ccc(NC(=O)c2ccnc(C(F)(F)F)c2)cc1-c1cc(OCCO)nc(C23CCOCC2(C#N)C3)c1 (stereo not drawn) [Compound 14],330,–,400,3500,–
Cc1ccc(NC(=O)c2ccnc(C(F)(F)F)c2)cc1-c1cc(OCC(C)(C)O)nc(C23CCOCC2C3)c1 (stereo not drawn) [Compound 15],330,–,900,4700,–
Cc1ccc(NC(=O)c2ccnc(C(F)(F)F)c2)cc1-c1cc(OCCO)nc([C@]23COC[C@H]2C3)c1 [Compound 16B],–,–,1100,600,"bioavailability ([3]; oral, intragastric 100 mg/kg versus intravenous 2 mg/kg, read-out: Bioavailability F): 131%; Tmax ([3]; po, intragastric administration 100 mg/kg, read-out: Maximum concentration time Tmax): 1 h; clearance ([3]; intravenous administration 2 mg/kg, read-out: Clearance rate Cl): 25.8 mL/min/kg; Vd ([3]; intravenous administration 2 mg/kg, read-out: Distribution volume Vd): 2.75 L/kg; half-life ([3]; intravenous administration 2 mg/kg, read-out: Half-life T1/2 (converted)): 1.43 h; AUC ([3]; po, intragastric administration 100 mg/kg): 178 µM·h; Cmax ([3]; po, intragastric administration 100 mg/kg, read-out: Maximum concentration Cmax): 25 µM; AUC ([3]; intravenous administration 2 mg/kg): 2.61 µM·h; C0 ([3]; intravenous administration 2 mg/kg, read-out: Initial concentration C0): 2.01 µM; IC50 ([1]; Homo sapiens, Calu-6, Ca1u-6 (Kras^Q61K) cells): 490 nM; relative tumor proliferation rate T/C [4]: 11.4%; tumor growth inhibition rate TGI [4]: 99.1%; IC50 [2, 7]: 180 nM"
Cc1ccc(NC(=O)c2ccnc(C(F)(F)F)c2)cc1-c1cc(OCCO)nc(C23COCC2C3)c1 (stereo not drawn) [Compound 16],–,–,2200,1300,"IC50 [2, 7]: 160 nM"
